Measured values: patent publication US12054475B2, “Substituted heterocycles as aldehyde dehydrogenase inhibitors” (KayoThera Inc., priority 2021, dated 2024)
pIC50: −log10 of the molar value. Values joined by “and” are separate entries in the source; they are usually repeats but may differ in a detail not shown here. Equal values may be shown once. Read-outs that look alike come from different tables or passages of the source.

Key:
hALDH1a3 [1] = target: T1, hALDH1a3 (Homo sapiens (Human), UniProt P47895); assay: Aldh1a3 enzyme inhibition assay (recombinant enzyme, resorufin fluorescence); type: biochemical
Experimental: (§1) Cells were resuspended in 10 mM […] pH 7.4, 10 mM KCl. […] Recombinant enzyme and inhibitor added immediately before assay. Reaction rate measured by resorufin fluorescence.

mALDH1a3 = mALDH1a3 (Mus musculus (Mouse), UniProt Q9JHW9); assay: as above; type: biochemical
Experimental: as §1

mALDH1a2 = mALDH1a2 (Mus musculus (Mouse), UniProt Q62148); assay: Aldh1a2 enzyme inhibition assay (recombinant enzyme, resorufin fluorescence); type: biochemical
From the text: Recombinant enzyme and inhibitor added immediately before assay. Reaction rate measured by resorufin fluorescence.

hALDH1a2 [2] = target: T2, hALDH1a2 (Homo sapiens (Human), UniProt O94788); assay: as above; type: biochemical
[3] = Pharmacokinetic profiling in mice; conditions: male CD-1/C57BL/6 mice
[4] = tested on: T3-MCA fibrosarcoma cell line allografts; assay: T3-MCA fibrosarcoma allograft study; type: in vivo, C57BL6 syngeneic mice; conditions: oral, 40 mg/kg once daily for twelve days
Experimental: In one allograft study, T3-MCA fibrosarcoma cell line allografts were implanted subcutaneously into C57BL6 syngeneic mice. […] Tumor volume were measured on day 8, 14, and 17 post inoculation for each group, and tumor mass were measured at the end of the study.
In another allograft study, T3-MCA fibrosarcoma cell line allografts were implanted subcutaneously into C57BL6 syngeneic mice.

hALDH1a3 [5] = target: T1, hALDH1a3; assay: Cell based assay: STRA6 mRNA by q-rtPCR in MCF7 cells expressing ALDH1a3; conditions: 20 hours incubation, read-out: IC50 (Aldh1a3), STRA6 mRNA levels
Experimental: (§2) MCF7 cells were stably transduced with lentiviral vectors encoding human ALDH1a1, ALDH1a2 or ALDH1a3 or Vector control and selected by puromycin to establish stable cultures that were verified for overexpression by western blotting and Aldefluor activity. Cells were plated into 6 cm plates in regular DMEM media supplement with […]. At the beginning of the assay, cells were washed with PBS for 5 minutes followed by addition of compound solvated into DMEM media with 10% FBS or corresponding DMSO controls, maintaining DMSO at a constant concentration of 0.1% across all samples. Following 20 hours of incubation at 37 C, cells were lysed and RNA was extracted using a Qiagen RNAeasy kit. cDNA was synthesized using the Superscript IV kit and retinoid activation was measured using STRA6 mRNA levels as a proxy as measured by q-rtPCR.

hALDH1a2 [6] = target: T2, hALDH1a2; assay: Cell based assay: STRA6 mRNA by q-rtPCR in MCF7 cells expressing ALDH1a2; conditions: 20 hours incubation, read-out: IC50 (ALDH1a2), STRA6 mRNA levels
Experimental: as §2

mALDH1a2, sequence (Q62148 whole entry): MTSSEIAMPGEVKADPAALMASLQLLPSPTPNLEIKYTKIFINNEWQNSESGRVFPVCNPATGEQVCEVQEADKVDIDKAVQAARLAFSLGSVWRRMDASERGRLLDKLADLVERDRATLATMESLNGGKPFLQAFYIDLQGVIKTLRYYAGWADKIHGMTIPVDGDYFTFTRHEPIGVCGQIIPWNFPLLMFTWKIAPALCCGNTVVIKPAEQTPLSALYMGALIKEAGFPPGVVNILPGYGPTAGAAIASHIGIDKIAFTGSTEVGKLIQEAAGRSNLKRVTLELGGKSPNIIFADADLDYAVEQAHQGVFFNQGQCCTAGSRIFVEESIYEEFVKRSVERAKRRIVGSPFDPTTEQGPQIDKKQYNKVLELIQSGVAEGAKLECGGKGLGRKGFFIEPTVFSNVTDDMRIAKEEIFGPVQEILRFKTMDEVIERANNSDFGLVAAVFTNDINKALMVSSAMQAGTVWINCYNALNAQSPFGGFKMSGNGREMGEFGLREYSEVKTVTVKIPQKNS
T2 sequence (O94788 whole entry): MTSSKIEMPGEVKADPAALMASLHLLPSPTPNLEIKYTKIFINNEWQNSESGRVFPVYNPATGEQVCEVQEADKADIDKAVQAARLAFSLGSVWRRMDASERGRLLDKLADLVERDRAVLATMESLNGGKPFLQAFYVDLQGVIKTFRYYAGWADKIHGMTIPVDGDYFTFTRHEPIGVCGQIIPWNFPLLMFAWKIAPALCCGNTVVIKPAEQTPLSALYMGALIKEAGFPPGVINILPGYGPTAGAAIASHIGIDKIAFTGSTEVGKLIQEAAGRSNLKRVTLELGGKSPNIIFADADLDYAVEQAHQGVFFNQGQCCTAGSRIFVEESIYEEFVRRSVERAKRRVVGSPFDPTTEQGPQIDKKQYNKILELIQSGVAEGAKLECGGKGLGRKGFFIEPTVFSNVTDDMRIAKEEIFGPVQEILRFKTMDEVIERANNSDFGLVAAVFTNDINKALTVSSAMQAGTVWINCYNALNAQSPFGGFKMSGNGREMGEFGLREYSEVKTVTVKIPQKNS
T1 sequence (P47895 whole entry): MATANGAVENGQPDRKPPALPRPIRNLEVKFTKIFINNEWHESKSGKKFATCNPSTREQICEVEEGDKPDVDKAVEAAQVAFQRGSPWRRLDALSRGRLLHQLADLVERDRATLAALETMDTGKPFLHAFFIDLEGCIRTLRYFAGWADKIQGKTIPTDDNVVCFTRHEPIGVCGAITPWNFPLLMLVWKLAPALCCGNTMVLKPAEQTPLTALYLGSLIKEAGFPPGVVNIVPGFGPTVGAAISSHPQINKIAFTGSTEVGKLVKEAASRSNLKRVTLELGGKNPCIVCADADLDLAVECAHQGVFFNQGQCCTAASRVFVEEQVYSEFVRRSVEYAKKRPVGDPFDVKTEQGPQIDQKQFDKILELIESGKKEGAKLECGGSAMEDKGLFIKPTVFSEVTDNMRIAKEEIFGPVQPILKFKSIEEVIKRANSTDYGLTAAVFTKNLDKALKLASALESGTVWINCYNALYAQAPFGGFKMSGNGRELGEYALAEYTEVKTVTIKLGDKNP
mALDH1a3, sequence (Q9JHW9 whole entry): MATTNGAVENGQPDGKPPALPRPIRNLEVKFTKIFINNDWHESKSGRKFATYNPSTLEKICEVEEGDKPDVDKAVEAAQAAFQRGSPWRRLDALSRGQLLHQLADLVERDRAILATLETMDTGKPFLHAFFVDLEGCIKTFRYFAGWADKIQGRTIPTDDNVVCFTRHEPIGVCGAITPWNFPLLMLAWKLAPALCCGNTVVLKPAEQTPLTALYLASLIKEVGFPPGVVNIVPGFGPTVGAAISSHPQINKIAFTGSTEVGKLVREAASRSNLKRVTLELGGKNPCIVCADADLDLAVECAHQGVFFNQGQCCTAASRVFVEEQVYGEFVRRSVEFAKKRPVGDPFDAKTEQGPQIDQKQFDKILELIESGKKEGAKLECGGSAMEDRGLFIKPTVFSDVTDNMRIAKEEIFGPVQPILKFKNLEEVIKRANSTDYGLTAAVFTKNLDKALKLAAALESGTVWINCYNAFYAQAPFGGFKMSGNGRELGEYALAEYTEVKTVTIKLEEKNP

| pIC50 (hALDH1a3 [1]; read-out: hAldh1a3 IC50) | pIC50 (mALDH1a3; read-out: mAldh1a3 IC50) | pIC50 (mALDH1a2) | pIC50 (hALDH1a2 [2]) | Compound | further results |
| --- | --- | --- | --- | --- | --- |
| < 5.30 | < 5.30 | < 5.00 | < 5.00 | 2-ethyl-N-(8-methyl-2-oxo-3,4-dihydro-1H-quinolin-6-yl) piperazine-1-carboxamide [Compound 192] | – |
| < 5.30 | < 5.30 | – | – | CCC1COCCN1C(=O)Nc1cc(C)c2c(c1)CCC(=O)N2 (racemic) [Compound 193] | – |
| – | – | – | – | CCc1ccccc1C(=O)Nc1cc2c(cc1F)NC(=O)CC2 [Compound 4] | plasma half-life, IV bolus dosing ([3]; 1 mg/kg intravenous): 1.22 h; plasma half-life, PO oral gavage dosing ([3]; 10 mg/kg oral gavage): 1.70 h; oral bioavailability ([3]; 10 mg/kg oral gavage, 1 mg/kg intravenous): 62.5% |
| > 7.00 | 6.00 to 6.60 | 5.95 | 6.23 | CCc1cnccc1C(=O)Nc1ccc2c(c1)CCC(=O)N2 [Compound 9] | – |
| < 5.30 | < 5.30 | < 5.00 | < 5.00 | CCn1cncc1C(=O)Nc1ccc2c(c1)CCC(=O)N2 [Compound 49] | – |
| > 7.00 | > 7.00 | 6.31 | 6.43 | O=C1CCc2cc(NC(=O)c3ccncc3CC(F)(F)F)ccc2N1 [Compound 53] | – |
| > 7.00 | > 7.00 | 6.31 | 6.28 | O=C1CCc2cc(NC(=O)c3ccncc3CC3CC3)ccc2N1 [Compound 59] | – |
| – | – | 6.48 | 6.38 | CCc1cnc(Cl)cc1C(=O)Nc1ccc2c(c1)CCC(=O)N2 [Compound 77] | – |
| > 7.00 | 6.60 to 7.00 | 6.03 | 6.21 | O=C1CCc2cc(NC(=O)c3ccncc3CC(F)(F)F)c(F)cc2N1 [Compound 82] | – |
| 6.60 to 7.00 | 5.30 to 6.00 | 5.46 | 5.05 | CCc1cnccc1C(=O)Nc1cc2c(cc1C)NC(=O)CC2 [Compound 83] | – |
| 6.60 to 7.00 | > 7.00 | 5.83 | 5.00 | CCc1cnccc1C(=O)Nc1cc(C#N)c2c(c1)CCC(=O)N2 [Compound 139, N-(8-cyano-2-oxo-3,4-dihydro-1H-quinolin-6-yl)-3-ethyl-pyridine-4-carboxamide] | – |
| > 7.00 | > 7.00 | 6.74 | 6.54 | CCc1cnccc1C(=O)Nc1cc(F)c2c(c1)CCC(=O)N2 [Compound 141, 3-ethyl-N-(8-fluoro-2-oxo-3,4-dihydro-1H-quinolin-6-yl)pyridine-4-carboxamide] | – |
| > 7.00 | > 7.00 | 7.20 | 7.24 | CCc1cnccc1C(=O)Nc1cc(Cl)c2c(c1)CCC(=O)N2 [Compound 142, N-(8-chloro-2-oxo-3,4-dihydro-1H-quinolin-6-yl)-3-ethyl-pyridine-4-carboxamide] | – |
| > 7.00 | > 7.00 | 6.23 | 6.17 | CCc1cnccc1C(=O)Nc1cc2c(c(F)c1F)NC(=O)CC2 [Compound 143, N-(7,8-difluoro-2-oxo-3,4-dihydro-1H-quinolin-6-yl)-3-ethyl-pyridine-4-carboxamide] | – |
| > 7.00 | > 7.00 | 6.34 | 6.52 | CCc1cnccc1C(=O)Nc1cc(CC)c2c(c1)CCC(=O)N2 [Compound 144, 3-ethyl-N-(8-ethyl-2-oxo-3,4-dihydro-1H-quinolin-6-yl)pyridine-4-carboxamide] | – |
| > 7.00 | > 7.00 | 6.76 | 6.92 | CCc1cnccc1C(=O)Nc1cc2c(c3ccncc13)NC(=O)CC2 [Compound 145, 3-ethyl-N-(2-oxo-3,4-dihydro-1H-1,8-phenanthrolin-6-yl)pyridine-4-carboxamide] | – |

| pIC50 (hALDH1a3 [1]; read-out: hAldh1a3 IC50) | pIC50 (mALDH1a3; read-out: mAldh1a3 IC50) | pIC50 (mALDH1a2) | pIC50 (hALDH1a2 [2]) | Compound | further results |
| --- | --- | --- | --- | --- | --- |
| > 7.00 | > 7.00 | 6.39 | 6.45 | CCc1cnccc1C(=O)Nc1cc2c(c(C)c1F)NC(=O)CC2 [Compound 146, 3-ethyl-N-(7-fluoro-8-methyl-2-oxo-3,4-dihydro-1H-quinolin-6-yl)pyridine-4-carboxamide] | – |
| 6.60 to 7.00 | 6.00 to 6.60 | 6.45 | 6.37 | CCc1cnccc1C(=O)Nc1cc2c(c(C)c1C)NC(=O)CC2 [Compound 147, N-(7,8-dimethyl-2-oxo-3,4-dihydro-1H-quinolin-6-yl)-3-ethyl-pyridine-4-carboxamide] | – |
| > 7.00 | > 7.00 | 6.93 | – | Cc1cc(NC(=O)c2ccncc2CC2CC2)cc2c1NC(=O)CC2 [Compound 149, 3-(cyclopropylmethyl)-N-(8-methyl-2-oxo-3,4-dihydro-1H-quinolin-6-yl)pyridine-4-carboxamide] | – |
| > 7.00 | > 7.00 | 6.88 | 6.92 | CCc1cnc(Cl)cc1C(=O)Nc1cc(C)c2c(c1)CCC(=O)N2 [Compound 150, 2-chloro-5-ethyl-N-(8-methyl-2-oxo-3,4-dihydro-1H-quinolin-6-yl)pyridine-4-carboxamide] | – |
| – | – | 7.07 | 7.12 | Cc1cc(NC(=O)c2ccncc2CC(F)(F)F)cc2c1NC(=O)CC2 [Compound 151, N-(8-methyl-2-oxo-3,4-dihydro-1H-quinolin-6-yl)-3-(2,2,2-trifluoroethyl)pyridine-4-carboxamide] | tolerability [4]: excellent tolerability; tumor growth [4]: successful inhibition of tumor growth; pIC50 (hALDH1a3 [5]): 8.90 and > 7.30; pIC50 (hALDH1a2 [6]): 7.26 and > 7.30 |
| 5.30 to 6.00 | 6.00 to 6.60 | 6.08 | 6.09 | Cc1cc(NC(=O)c2ccnc3c2CCO3)cc2c1NC(=O)CC2 [Compound 152, N-(8-methyl-2-oxo-3,4-dihydro-1H-quinolin-6-yl)-2,3-dihydrofuro[2,3-b]pyridine-4-carboxamide] | – |
| 5.30 to 6.00 | 6.00 to 6.60 | 6.44 | 6.31 | Cc1cc(NC(=O)c2ccnc3c2CCN3)cc2c1NC(=O)CC2 [Compound 153, N-(8-methyl-2-oxo-3,4-dihydro-1H-quinolin-6-yl)-2,3-dihydro-1H-pyrrolo[2,3-b]pyridine-4-carboxamide] | – |
| 5.30 to 6.00 | 6.00 to 6.60 | 5.09 | 5.32 | CCc1cnccc1C(=O)Nc1cnc2c(c1)CCC(=O)N2 [Compound 154, 3-ethyl-N-(7-oxo-6,8-dihydro-5H-1,8-naphthyridin-3-yl)pyridine-4-carboxamide] | – |
| 6.00 to 6.60 | 5.30 to 6.00 | 5.89 | 6.08 | Cc1cc(NC(=O)c2ccncc2CC2CCC2)cc2c1NC(=O)CC2 [Compound 155] | – |
| 6.00 to 6.60 | 6.00 to 6.60 | 5.50 | 5.56 | CCc1cnccc1C(=O)Nc1cc2c(cn1)NC(=O)CC2 [Compound 159, 3-ethyl-N-(2-oxo-3,4-dihydro-1H-1,7-naphthyridin-6-yl)pyridine-4-carboxamide] | – |
| < 5.30 | < 5.30 | 6.75 | 6.79 | Cc1cc(Nc2ncc3ccccc3n2)cc2c1NC(=O)C(C)(C)C2 [Compound 160, 3,3,8-trimethyl-6-(quinazolin-2-ylamino)-1,4-dihydroquinolin-2-one] | – |
| < 5.30 | 6.00 to 6.60 | 6.94 | 7.05 | Cc1cc(Nc2cnc3ccccc3n2)cc2c1NC(=O)C(C)(C)C2 [Compound 161, 3,3,8-trimethyl-6-(quinoxalin-2-ylamino)-1,4-dihydroquinolin-2-one] | – |
| > 7.00 | 6.00 to 6.60 | < 5.00 | 5.80 | CCc1nnccc1C(=O)Nc1cc(C)c2c(c1)CCC(=O)N2 [Compound 166, 3-ethyl-N-(8-methyl-2-oxo-3,4-dihydro-1H-quinolin-6-yl) pyridazine-4-carboxamide] | – |
| > 7.00 | > 7.00 | 6.09 | 6.12 | O=C1CCc2cc(NC(=O)c3ccncc3CC(F)(F)F)c(F)c(F)c2N1 [Compound 167, N-(7,8-difluoro-2-oxo-3,4-dihydro-1H-quinolin-6-yl)-3-(2,2,2-trifluoroethyl) pyridine-4-carboxamide] | – |
| – | – | 7.04 | 7.15 | O=C1CCc2cc(NC(=O)c3ccncc3CC(F)(F)F)cc(Cl)c2N1 [Compound 168, N-(8-chloro-2-oxo-3,4-dihydro-1H-quinolin-6-yl)-3-(2,2,2-trifluoroethyl) pyridine-4-carboxamide] | – |

| Compound | pIC50 (hALDH1a3 [1]; read-out: hAldh1a3 IC50) | pIC50 (mALDH1a3; read-out: mAldh1a3 IC50) | pIC50 (mALDH1a2) | pIC50 (hALDH1a2 [2]) | further results |
| --- | --- | --- | --- | --- | --- |
| CCc1cnccc1C(=O)Nc1cc2c(cc1F)NC(=O)CC2 [Compound 1] | – | – | 5.48 | 5.48 | pIC50 (hALDH1a3 [1]): 6.60 to 7.00; pIC50 (mALDH1a3): 6.60 to 7.00 |
